Reference: US6664231B1, “Anti-fungal peptides” (priority 1993, dated 2003)
Square brackets hold non-standard residues; d marks the D form. Peptide text beside a SMILES is read from it. Phe(4-NH2) = Nc1ccc(C[C@H](N)C(=O)O)cc1; 1Nal = N[C@@H](Cc1cccc2ccccc12)C(=O)O; d2Nal = N[C@H](Cc1ccc2ccccc2c1)C(=O)O

These molecules were tested on C. albicans (CA-1, Strain SLU-1) (assay: Radial diffusion assay). Conditions: pmoles of peptide added to well to achieve a 30 mm^2 zone, PROBIT analysis; crude or purified (P′) peptide.
Format: cell-based, Candida albicans
Experimental: In the radial diffusion assay procedures, the CA-1 cultures and peptide solutions were prepared as in the broth assay procedure described above. Ten mL of molten underlayer agarose comprising 3% Sabouraud Dextrose broth, 1% agarose (Pharmacia, Piscataway, N.J.), 0.02% Tween 20, and 10 mM sodium phosphate at pH 7.4, was added to polystyrene tubes and maintained in a 56° C. water bath until the addition of yeast. Tubes were cooled to approximately 45° C., yeast were added to give a final concentration of 1×10^6 CFU/mL, and the tubes were mixed again by inverting. The contents were poured into level square petri dishes and distributed evenly. […] A series of wells were punched into the hardened agarose using a sterile 3 mm punch attached to a vacuum apparatus.
Peptides to be assayed were 2-fold serially diluted in Dulbecco's PBS (D-PBS) starting from a concentration of approximately 1 mg/mL. Five μL of each dilution were added to each well and the plates were incubated at 37° C. for 3 hours. An overlayer of 10 mL of molten agarose comprising 6% Sabouraud Dextrose broth, 1% agarose, and 10 mM sodium phosphate, pH 7.4, (at approximately 45° C.) was then added and plates were incubated overnight at 37° C. Following this overnight incubation, a dilute Coomassie solution was poured into the plates and allowed to stain for 24 hours.
Clear zones of growth inhibition around each well were measured with calipers. The actual area of growth inhibition (mm^2) was calculated by subtracting the area of the well. Table 1 below sets out the results of the radial diffusion assays for tested peptides in terms of the number of picomoles (pmol) of peptide required to establish a 30 mm^2 area of growth inhibition calculated by PROBIT analysis (e.g., calculated from regression of the linear portion of log-concentration dose-response curve, log pmol/well vs. net area of inhibition).

| Compound | C. albicans pmol/30 mm^2 zone |
| --- | --- |
| CC[C@H](C)[C@H](NC(=O)[C@H](CC(C)C)NC(=O)[C@H](Cc1c[nH]c2ccccc12)NC(=O)CNC(=O)[C@@H](NC(=O)[C@H](CCCCN)NC(=O)[C@H](CO)NC(=O)[C@@H](N)CCCCN)C(C)C)C(=O)N[C@@H](Cc1ccc(N)cc1)C(=O)N[C@@H](Cc1cccc2ccccc12)C(=O)N[C@@H](Cc1ccccc1)C(=O)N[C@@H](Cc1c[nH]cn1)C(=O)N[C@@H](CCCCN)C(=O)N[C@@H](CCCCN)C(N)=O [XMP.235] (H-KSKVGWLI[Phe(4-NH2)][1Nal]FHKK-NH2) | b (No detectable activity up to 5 μg/well) |
| CC[C@H](C)[C@H](NC(=O)[C@H](CC(C)C)NC(=O)[C@H](Cc1c[nH]c2ccccc12)NC(=O)[C@H](Cc1ccc(N)cc1)NC(=O)[C@@H](NC(=O)[C@H](CCCCN)NC(=O)[C@H](CO)NC(=O)[C@@H](N)CCCCN)C(C)C)C(=O)N[C@@H](CCC(N)=O)C(=O)N[C@@H](Cc1cccc2ccccc12)C(=O)N[C@@H](Cc1ccccc1)C(=O)N[C@@H](Cc1c[nH]cn1)C(=O)N[C@@H](CCCCN)C(=O)N[C@@H](CCCCN)C(N)=O [XMP.236] (H-KSKV[Phe(4-NH2)]WLIQ[1Nal]FHKK-NH2) | >2,631 pmol/30 mm^2 zone |
| CC[C@H](C)[C@H](NC(=O)[C@H](CC(C)C)NC(=O)[C@H](Cc1c[nH]c2ccccc12)NC(=O)CNC(=O)[C@@H](NC(=O)[C@H](CCCCN)NC(=O)[C@H](CO)NC(=O)[C@@H](N)CCCCN)C(C)C)C(=O)N[C@@H](CCC(N)=O)C(=O)N[C@@H](Cc1cccc2ccccc12)C(=O)N[C@@H](Cc1c[nH]c2ccccc12)C(=O)N[C@@H](Cc1c[nH]cn1)C(=O)N[C@@H](CCCCN)C(=O)N[C@@H](CCCCN)C(N)=O [XMP.237] (H-KSKVGWLIQ[1Nal]WHKK-NH2) | >2,777 pmol/30 mm^2 zone |
| CC[C@H](C)[C@H](NC(=O)[C@H](CC(C)C)NC(=O)[C@H](Cc1c[nH]c2ccccc12)NC(=O)[C@H](Cc1ccc(N)cc1)NC(=O)[C@@H](NC(=O)[C@H](CCCCN)NC(=O)[C@H](CO)NC(=O)[C@@H](N)CCCCN)C(C)C)C(=O)N[C@@H](Cc1ccc(N)cc1)C(=O)N[C@@H](CC(C)C)C(=O)N[C@@H](Cc1ccccc1)C(=O)N[C@@H](Cc1c[nH]cn1)C(=O)N[C@@H](CCCCN)C(=O)N[C@@H](CCCCN)C(N)=O [XMP.238] (H-KSKV[Phe(4-NH2)]WLI[Phe(4-NH2)]LFHKK-NH2) | 2,702 pmol/30 mm^2 zone |
| CC[C@H](C)[C@H](NC(=O)[C@H](CC(C)C)NC(=O)[C@H](Cc1c[nH]c2ccccc12)NC(=O)CNC(=O)[C@@H](NC(=O)[C@H](CCCCN)NC(=O)[C@H](CO)NC(=O)[C@@H](N)CCCCN)C(C)C)C(=O)N[C@@H](Cc1ccc(N)cc1)C(=O)N[C@@H](CC(C)C)C(=O)N[C@@H](Cc1c[nH]c2ccccc12)C(=O)N[C@@H](Cc1c[nH]cn1)C(=O)N[C@@H](CCCCN)C(=O)N[C@@H](CCCCN)C(N)=O [XMP.239] (H-KSKVGWLI[Phe(4-NH2)]LWHKK-NH2) | >2,802 pmol/30 mm^2 zone |
| CC[C@H](C)[C@H](NC(=O)[C@H](CC(C)C)NC(=O)[C@H](Cc1c[nH]c2ccccc12)NC(=O)[C@H](Cc1ccc(N)cc1)NC(=O)[C@@H](NC(=O)[C@H](CCCCN)NC(=O)[C@H](CO)NC(=O)[C@@H](N)CCCCN)C(C)C)C(=O)N[C@@H](CCC(N)=O)C(=O)N[C@@H](CC(C)C)C(=O)N[C@@H](Cc1c[nH]c2ccccc12)C(=O)N[C@@H](Cc1c[nH]cn1)C(=O)N[C@@H](CCCCN)C(=O)N[C@@H](CCCCN)C(N)=O [XMP.240] (H-KSKV[Phe(4-NH2)]WLIQLWHKK-NH2) | >2,802 pmol/30 mm^2 zone |
| CC[C@H](C)[C@H](NC(=O)[C@H](CC(C)C)NC(=O)[C@@H](Cc1ccc2ccccc2c1)NC(=O)CNC(=O)[C@@H](NC(=O)[C@H](CCCCN)NC(=O)[C@H](CO)NC(=O)[C@@H](N)CCCCN)C(C)C)C(=O)N[C@@H](CC(C)C)C(=O)N[C@@H](CC(C)C)C(=O)N[C@@H](Cc1ccccc1)C(=O)N[C@@H](Cc1c[nH]cn1)C(=O)N[C@@H](CCCCN)C(=O)N[C@@H](CCCCN)C(N)=O [XMP.242] (H-KSKVG[d2Nal]LILLFHKK-NH2) | 359 pmol/30 mm^2 zone |
